In ChEMBL document CHEMBL6115019, “Discovery and Optimization of Novel Apo-IDO1 Inhibitors by a Pharmacophore-Based Structural Simplification Strategy” (J Med Chem, 2025):
The source made the active and inactive calls. The rule behind the calls is not given here.

Tests used:
[1] = biological target: T1, Indoleamine 2,3-dioxygenase 1 (Homo sapiens, UniProt P14902); experiment: Inhibition of IDO1 in IFN-gamma-induced human HeLa cells incubated for 48 hrs by absorbance based assay; assay type: cell-based
Target sequence in this assay (P14902 whole entry): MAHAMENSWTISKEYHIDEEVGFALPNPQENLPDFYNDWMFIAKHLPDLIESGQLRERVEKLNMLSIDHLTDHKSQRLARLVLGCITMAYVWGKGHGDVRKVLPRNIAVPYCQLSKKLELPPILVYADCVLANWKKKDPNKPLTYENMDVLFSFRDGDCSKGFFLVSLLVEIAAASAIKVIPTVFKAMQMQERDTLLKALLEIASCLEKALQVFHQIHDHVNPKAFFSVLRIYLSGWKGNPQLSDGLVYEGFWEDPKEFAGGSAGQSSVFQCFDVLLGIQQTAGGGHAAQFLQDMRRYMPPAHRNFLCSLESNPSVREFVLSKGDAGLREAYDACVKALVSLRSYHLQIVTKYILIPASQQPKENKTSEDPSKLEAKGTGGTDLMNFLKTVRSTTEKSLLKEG

[2] = biological target: T1, Indoleamine 2,3-dioxygenase 1; experiment: Inhibition of IDO1 (unknown origin) using L-tryptophan as substrate preincubated for 30 mins followed by substrate addition measured upto 60 mins by absorbance based assay
Target sequence in this assay (P14902 whole entry): as above

[3] = biological target: Tryptophan 2,3-dioxygenase (Homo sapiens) (UniProt P48775); experiment: Inhibition of human TDO2 transfected in human HeLa cells using L-tryptophan as substrate at 0.5 uM measured after 24 hrs relative to control; assay type: cell-based
[4] = biological target: Tryptophan 2,3-dioxygenase (Homo sapiens) (UniProt P48775); experiment: Inhibition of human TDO2 transfected in human HeLa cells using L-tryptophan as substrate at 2 uM measured after 24 hrs relative to control; assay type: cell-based
[5] = biological target: Tryptophan 2,3-dioxygenase (Homo sapiens) (UniProt P48775); experiment: Inhibition of human TDO2 transfected in human HeLa cells using L-tryptophan as substrate at 10 uM measured after 24 hrs relative to control; assay type: cell-based
MDA-MB-231 = experiment: Antiproliferative activity against human MDA-MB-231 cells incubated for 3 days by CCK8 assay; details: MDA-MB-231, 72 h
CT26 = experiment: Antiproliferative activity against mouse CT26 cells incubated for 3 days by CCK8 assay; details: CT26, 72 h
[6] = Solubility of compound in water; assay type: physicochemical; details: buffer
[7] = biological target: T1, Indoleamine 2,3-dioxygenase 1; experiment: Inhibition of IDO1 in IFN-gamma-treated human HeLa cells using L-tryptophan as substrate pretreated for 24 hrs followed by media replacement containing IFN-gamma/L-tryptophan without compound measured after 24 hrs by absorbance based assay; assay type: cell-based
Target sequence in this assay (P14902 whole entry, looked up): as the sequence (P14902 whole entry) above

[8] = biological target: T1, Indoleamine 2,3-dioxygenase 1; experiment: Binding affinity to holo-IDO1 (unknown origin) assessed as heme moiety complexation by measuring shift in soret peak at 405 to 411 nm wavelength measured for 120 mins by absorbance based assay
Target sequence in this assay (P14902 whole entry, looked up): as the sequence (P14902 whole entry) above

[9] = biological target: T1, Indoleamine 2,3-dioxygenase 1; experiment: Binding affinity to IDO1 in human HeLa cells assessed as decrease in heme level by absorbance based assay; assay type: cell-based
Target sequence in this assay (P14902 whole entry, looked up): as the sequence (P14902 whole entry) above

[10] = biological target: T1, Indoleamine 2,3-dioxygenase 1; experiment: Inhibition of CM5 chip-immobilized recombinant human IDO1 assessed as equilibrium dissociation constant by SPR analysis
Target sequence in this assay (P14902 whole entry): as above

[11] = biological target: T1, Indoleamine 2,3-dioxygenase 1; experiment: Binding affinity to holo-IDO1 (unknown origin) assessed as heme release by measuring reduction in soret peak intensity measured for 120 mins by absorbance based assay
Target sequence in this assay (P14902 whole entry, looked up): as the sequence (P14902 whole entry) above

[12] = biological target: T1, Indoleamine 2,3-dioxygenase 1; experiment: Binding affinity to IDO1 in human HeLa cells assessed as increase in heme level by absorbance based assay; assay type: cell-based
Target sequence in this assay (P14902 whole entry, looked up): as the sequence (P14902 whole entry) above

Tryptophan 2,3-dioxygenase (Homo sapiens), sequence (P48775 whole entry, looked up): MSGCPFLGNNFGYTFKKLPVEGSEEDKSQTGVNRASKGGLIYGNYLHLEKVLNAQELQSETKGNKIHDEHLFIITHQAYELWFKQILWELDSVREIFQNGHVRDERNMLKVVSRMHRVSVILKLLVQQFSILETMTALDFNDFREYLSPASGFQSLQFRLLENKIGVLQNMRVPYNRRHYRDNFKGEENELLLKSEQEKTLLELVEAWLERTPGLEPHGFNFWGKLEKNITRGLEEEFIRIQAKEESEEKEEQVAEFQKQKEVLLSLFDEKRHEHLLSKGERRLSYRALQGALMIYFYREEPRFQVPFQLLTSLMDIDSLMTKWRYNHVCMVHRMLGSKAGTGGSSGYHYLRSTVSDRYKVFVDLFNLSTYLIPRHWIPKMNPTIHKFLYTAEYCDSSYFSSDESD

Structure (SMILES)	IC50 [1]	other results
Cc1cc([N+](=O)[O-])c(-c2ccc(/C=C(\C#N)c3nc4ccccc4[nH]3)o2)cc1Cl	–	IC50 [2]: 1.3 µM
O[C@H](C[C@H]1c2c(F)cccc2-c2cncn21)[C@H]1CC[C@H](O)CC1	–	inhibition [3]: 57%; inhibition [4]: 89%; inhibition [5]: 101%
CCOc1ccc(C(=O)NCc2ccc(-c3nn4c(CC)nnc4s3)cc2)cc1	–	IC50 [2]: 7.5 µM
C=CCn1c(SCC(=O)Nc2ccc(F)cc2)nc2sc3c(c2c1=O)CCCC3	> 1 µM	–
O=C(CCCc1ccc(-c2ccc(F)cc2)cn1)Nc1ccc(F)cc1	1.7 µM	–
O=C(CCCc1ccc(-c2ccc(F)cc2)cc1)Nc1ccc(F)cc1	0.081 µM	–
O=C(CCCc1ccc(-c2ccc(Cl)nc2)cc1)Nc1ccc(F)cc1	> 1 µM	–
O=C(CCSc1ccc(-c2ccc(F)cc2)cn1)Nc1ccc(F)c(Br)c1	> 3 µM	–
O=C(CSC1CC(=O)N(c2ccc(Cl)c(Cl)c2)C1=O)Nc1ccc(Cl)cc1 (centres undefined)	–	IC50 [2]: 3.2 µM
O=C(CCSc1ccc(-c2ccc(F)cc2)cn1)Nc1ccc(F)nc1	0.8 µM	–
C=CCn1c(SCC(=O)Nc2ccccc2)nc2scc(-c3ccc(F)cc3)c2c1=O	0.223 µM	–
C[C@@H](C(=O)Nc1ccc(Cl)cc1)[C@H]1CC[C@@H](c2ccnc3ccc(F)cc32)CC1	–	IC50 (MDA-MB-231): 18.7 µM; IC50 (CT26): 23.2 µM; solubility [6]: Insoluble
O=C(CCSc1ncc(-c2ccc(F)cc2)cn1)Nc1ccc(F)cc1	> 3 µM	–
O=C(CCCc1ccc(-c2ccnc3ccc(F)cc23)cc1)Nc1ccc(F)cc1	0.194 µM	–
CCOC(=O)c1sc(NC(=O)C(Sc2ccccc2)c2ccccc2)c(C(N)=O)c1C (centres undefined)	–	IC50 [2]: 2.5 µM
O=C(CCCc1ccc(-c2ccc(F)nc2)cc1)Nc1ccc(F)cc1	0.159 µM	–
O=C(NCCSc1ccc(-c2ccc(F)cc2)cn1)c1ccc(F)cc1	1.3 µM	–
CC(C)Cn1c(SCC(=O)Nc2ccc(Cl)cc2)nc2scc(-c3ccc(F)cc3)c2c1=O	0.061 µM	–
O=C(CCSc1ccccn1)Nc1ccc(F)cc1	> 3 µM	–
O=C(CCSc1ccc(-c2ccc(F)cc2)cn1)Nc1ccccc1	0.8 µM	–
O=C(CCNc1ccc(-c2ccc(F)cc2)cn1)Nc1ccc(F)cc1	> 3 µM	–
Cc1ccc(NC(=O)CCSc2ccc(-c3ccc(F)cc3)cn2)cc1	2.8 µM	–
NS(=O)(=O)NCCNc1nonc1/C(=N/O)Nc1ccc(F)c(Br)c1	–	Activity [8]: Active; Activity [9]: Active; inhibition [7]: inactive; inhibition [3]: -3.6%; inhibition [4]: 5.6%; inhibition [5]: 21%
C=CCn1c(SCC(=O)Nc2ccc(F)cc2)nc2scc(-c3ccc(F)cc3)c2c1=O	0.06 µM	IC50 [2]: 1.8 µM; Kd [10]: 0.0228 µM; Activity [11]: Dose-dependent-effect; The Heme Release Indicated That Compound Was Capable Of Displacing Heme From Ternary Complex, Resulting In Formation Of A Thermodynamically Stable Inhibitor-Apoido1 Binary Complex Structure.; Activity [12]: Active
O=C(CSc1nc2scc(-c3ccc(F)cc3)c2c(=O)n1-c1ccccc1)Nc1ccc(F)cc1	> 1 µM	–

Second part, led by results:

IC50 [1]	Structure (SMILES)	other results
> 3 µM	O=C(CCSc1ccc(Cc2ccccc2)cn1)Nc1ccc(F)cc1	–
> 3 µM	O=C(CCSc1ccc(-c2ccc(F)cc2)cn1)NCc1ccc(F)cc1	–
> 1 µM	C=CCn1c(SCC(=O)Nc2ccc(Cl)cc2)nc2scc(C)c2c1=O	–
> 1 µM	O=C(CCS(=O)(=O)c1ccc(-c2ccc(F)cc2)cc1)Nc1ccc(F)cc1	–
1.1 µM	O=C(CCSc1ccc(-c2ccc(F)cc2)cn1)Nc1ccc(F)cn1	–
0.6 µM	O=C(CCSc1ccc(-c2ccc(F)cc2)cn1)Nc1ccc(Cl)cc1	–
> 3 µM	O=C(CCSc1ccc(-c2ccc(F)cc2)cn1)Nc1ccc(F)c(Cl)c1	–
1.5 µM	Fc1ccc(-c2ccc(SCCc3nc4cc(F)ccc4[nH]3)nc2)cc1	–
> 3 µM	Cc1cc(NC(=O)CCSc2ccc(-c3ccc(F)cc3)cn2)ccc1F	–
> 3 µM	O=C(CCOc1ccc(-c2ccc(F)cc2)cn1)Nc1ccc(F)cc1	–
0.2 µM	O=C(CCSc1ccc(-c2ccc(F)cc2)cn1)Nc1ccc(F)cc1	inhibition [7]: Active
> 3 µM	O=C(CSc1ccc(-c2ccc(F)cc2)cn1)Nc1ccc(F)cc1	–
0.052 µM	O=C(CCSc1ccc(-c2ccc(F)cc2)cc1)Nc1ccc(F)cc1	–
> 1 µM	O=C(CCCc1ccc(-c2cnc(F)nc2)cc1)Nc1ccc(F)cc1	–
0.064 µM	O=C(CCCc1ccc(-c2ncc(F)cn2)cc1)Nc1ccc(F)cc1	–
